Experimental findings from patent US20150105281A1, “Method for the Selection of Serum Biomarkers of Epigenetic Alterations, Particularly of Global Hypomethylation and Their Uses” (Universite Paris Descartes, priority 2012, published 2015) are described below.

Type in all cases: cell-based, human
One experiment relates to hCGβ type II. As to the kind of experiment: hCGβ type II in supernatants of cancer cell lines after induction of DNA demethylation (KRYPTOR immunoassay). As to conditions: 10 cancer cell lines, 72 h at dose A or dose B, supernatant, vs cells not exposed (FIG. 4B). The text has this: (§1) To further determine the impact of global demethylation on the expression of hCGβ type II and pro-EPIL, we used 5-aza-2′ deoxycytidine (5-aza-dC), a strong inducer of DNA de-methylation and measured the levels of hCGβ type II and pro-EPIL in the supernatants of 10 cancer cell lines of various histological origin, treated at two different doses of 5-aza-dC. On the curve of viability of each cell line treated with 5-aza-dC at increasing doses, the two selected doses that have been selected for studying the effect of global hypomethylation by 5-aza-dC on the production of hCGβ type II and pro-EPIL were the doses corresponding to the 5-aza-dC concentrations at the inflexion point and at the 50% inhibition of cell viability (Inhibition growth Concentration 50% or IC 50), respectively (FIG. 3 and Table 2).
(§2) Experiments were performed as previously described. Briefly, in 75 cm^2 size cell culture flaks, cell lines were grew up to more than 50% confluence before treating them for 72 h with 5-aza-dC at either the doses A corresponding at the Inflection Points, or the doses B corresponding to IC50. […] After trypsinisation, cells were counted in malassez chamber using trypan blue. […] Then, the pro-EPIL and hCG B type II concentrations were determined by an ELISA immunoassay and an automated KRYPTOR immunoassay, respectively (Table 2, FIG. 4A, FIG. 4B).

Another experiment has as its system HT1376. As to the kind of experiment: Cell viability (WST-1) with 5-aza-dC at increasing doses.
Excerpt: as §1
(§3) Briefly, 10,000 cells were plated in 96-well plates in 100 μl medium. After one day, dilution range of 5-aza-dC from 1,000 μM to 0.06 μM were added. After 96 h incubation time, 10 μl of WST-1 were added and optical density (O.D) were measured at 450 nm (FIG. 3 and Table 2).

A further experiment relates to TC320X6. Described as above. As to conditions: 96 h.
Excerpt: as §1, §3

Another experiment deals with SHP77. Described as above.
Excerpt: as §1, §3

A further experiment concerns OBR. The description is as above. As to conditions: 96 h.
Excerpt: as §1, §3

For another experiment, the system named is LCF09. The description is as above. As to conditions: 96 h.
Excerpt: as §1, §3

The next experiment has as its system JEG. Described as above. The conditions noted are these: 96 h.
Excerpt: as §1, §3

Another experiment has as its system A549. The experiment is described as above.
Excerpt: as §1, §3

Another experiment concerns CLRB018P. Described as above. The conditions noted are these: 96 h.
Excerpt: as §1, §3

The subject of another experiment is BC173. The experiment is described as above. The conditions noted are these: 96 h.
Excerpt: as §1, §3

Another experiment deals with JAR. The description is as above. As to conditions: 96 h.
Excerpt: as §1, §3

The next experiment relates to pro-EPIL. As to the kind of experiment: Pro-EPIL in supernatants of cancer cell lines after induction of DNA demethylation (ELISA). The conditions noted are these: 10 cancer cell lines, 72 h at dose A or dose B, supernatant, vs cells not exposed (FIG. 4A).
Excerpt: as §1, §2
(In general: In an ELISA, binding on a coated surface is turned into a signal by an enzyme label.)

[1] abbreviates: Homo sapiens, read-out: Dose B (5-aza-dC concentration at the 50% inhibition of cell viability, IC 50).

With `Nc1ncn([C@H]2C[C@H](O)[C@@H](CO)O2)c(=O)n1` [5-aza-dC, 5-aza-2′ deoxycytidine], the “Cell lines with an increase in the production of hCGβ type II” value in the experiment with hCGβ type II is 7 out of 10. Moreover, the “Dose A (5-aza-dC concentration at the inflexion point of the viability curve)” value in the experiment on HT1376 (HT1376, bladder, 96 h, WST-1) worked out at 1.6 µM; in the experiment on TC320X6 (TC320X6, colon, WST-1), 4 µM; with SHP77 (SHP77, lung, 96 h, WST-1), 8 µM; in the experiment with OBR (OBR, bladder, WST-1), 6.5 µM; in the experiment with LCF09 (LCF09, lung, WST-1), 5 µM; with JEG (JEG, placenta, WST-1), 2.6 µM. The “Dose A (5-aza-dC concentration at the inflexion point of the viability curve)” value in the experiment on A549 (A549, lung, 96 h, WST-1) is 12.5 µM; with CLRB018P (CLRB018P, colon, WST-1), 15.6 µM; in the experiment on BC173 (BC173, breast, WST-1), 1.95 µM; in the experiment with JAR (JAR, placenta, WST-1), 2 µM. Further, the IC50 in the experiment with HT1376 (Homo sapiens, HT-1376, 96 h, read-out: Dose B (5-aza-dC concentration at the 50% inhibition of cell viability, IC 50)) was 6.3 µM; with TC320X6 (setting [1]), 77 µM; in the experiment with SHP77 (Homo sapiens, SHP77, 96 h, read-out: Dose B (5-aza-dC concentration at the 50% inhibition of cell viability, IC 50)), 27.5 µM; in the experiment with OBR (setting [1]) it was 20 µM; in the experiment with LCF09 (setting [1]), 25 µM; with JEG (setting [1]), 5 µM. The IC50 in the experiment on A549 (Homo sapiens, A549, 96 h, read-out: Dose B (5-aza-dC concentration at the 50% inhibition of cell viability, IC 50)) came out at 50 µM; with CLRB018P (setting [1]), 186 µM; in the experiment on BC173 (setting [1]), 117 µM; in the experiment on JAR (setting [1]), 17.7 µM. Also, in the experiment with pro-EPIL, the “Effect on the production of pro-EPIL” value is on record as “induced consistently an increase”.
